The values that follow come from patent US12415939B2, “Nano-adhesive and surface primer compound and use thereof” (The Regents of the University of California, priority 2015, dated 2025).

A short description of data set [1]: QCM-D adsorption of primers. As to conditions: for surface concentration of adsorbed layer: Sauerbrey, after rinsing. The class given is physicochemical. As for the experimental part: A ‘static cell’ (often called ‘Open Module’) QCM-D (Q-Sense, Biolin Scientific) was employed to quantitatively evaluate the adsorption of each primer onto SiO2 surface using a quartz sensor (QSX 303, Biolin Scientific). Changes in resonance frequency (ΔF) and dissipation (ΔD) of the SiO2 were recorded and used to measure the adsorbed mass and layer viscoelasticity, respectively, of the primer deposited on the sensor. In detail, pure solvent (100 μl) was dropped onto the sensor and equilibrated for ˜20-30 min. Then, 2 wt % primer solution (100 μl) was dropped onto the sensor (this is labeled “Solution Drop-in” in FIG. 51) and equilibrated until the frequency and dissipation signals stabilized. To remove unbound primers, the sensor was rinsed with solvents (this is labeled “Solvent Rinsing” in FIG. 51) and equilibrated until frequency and dissipation signals stabilized.
Mass loss of P3 and P4 during the rinsing was negligible compared to P2 which lost 60% of initial mass, indicating outstanding adsorption efficiency of catechol-containing primers on SiO2 surfaces even compared to mussel foot protein adsorption (˜30% loss of mfp-3s^3). The priming thickness of P4 estimated by QCM-D is ˜3.1 nm which agrees with the average height of AFM images (˜3.5 nm), assuming that QCM-D measures the average thickness of a uniform layer. The smaller average thickness of P4 (˜3.1 nm) compared to the molecular contour length (˜4.8 nm) may be attributed to the flexible alkyl spacer in P4. The possibility of a softer, more flexible layer with P4 is supported by a higher change in dissipation (ΔD) compared to other primers.

The nature of data set [2]: Lap shear test of cured PMA resin on primed tooth enamel. On the set-up: species or system human. As for the experimental part:
1 wt % primer solution was spread on mica, glass, tooth enamel, or a silicon wafer and incubated for 1 min, followed by thorough washing with methanol (for MDP, P1-P3) or DMSO (for P4) and drying by flowing nitrogen. The surfaces were exposed to a basic aqueous solution (pH 9, using sodium hydroxide), incubated for 1 min, and drying by flowing nitrogen (see FIG. 52). The methacrylic comonomer blend (Bis-GMA, TEGDMA, DMAEMA and CQ) was packed in a gelatin capsule (size #4, 5-mm diameter, Torpac Inc.) and placed up on top of the primer-treated substrates. The comonomer blend was cured (or crosslinked) for 1 min using a portable dental curing lamp (Foshan Liang Ya Dental Co., LY-A180, 420-480 nm, 1200-2000 mW·cm^−2) (see FIG. 53). Uniaxial compression was applied to the capsule at a rate of 0.05 inch min^−1 using a materials testing system (MTS Bionix 200) until the capsules are separated from the substrate. The lap shear fracture measurements were repeated at least 10 times for each condition.

Data set [3] is described as follows: SFA adhesion of cured PMA resin between primer-treated mica surfaces. On the procedure: Atomically-smooth muscovite mica sheets were freshly cleaved (thickness of 2-5 μm) and attached on another large freshly cleaved mica backing sheet under a laminar flow hood and placed in a desiccator for clean storage. To ensure use of a fresh surface for each experiment, mica was peeled away from the backing sheet and glued on cylindrical disks using an epoxy glue (EPON 1004 F® from Exxon Chemicals). In each experiment, the mica surfaces were treated with one of the primer solutions, as described for the lap shear experiments, and then mounted in the SFA in a cross cylindrical geometry. In contrast to typical SFA experiments, which use an interferometric method to calculate the disk-disk separation distances and thus the interaction forces, in the SFA used here for adhesion testing, the disk separations were directly measured using semiconductor strain-gauged double cantilever springs (k=1000-10000 N/m)(see FIG. 67). After separating the surfaces, 100 […]1 of comonomer blend was injected between the two surfaces. Then, ˜600 mN of load was applied, followed by visible light curing for 1 min using the portable dental curing lamp (see FIG. 54G). Adhesion strength of cured polymer toward the mica was measured by detaching (unloading) two surfaces. All loading and unloading were performed using a coarse micrometer at the velocity of […]. The SFA measurements were repeated at least 5 times for each condition.

The nature of data set [4]: Surface forces apparatus (SFA) cohesion/adhesion between thin films on mica. To be noted: for cohesion (or adhesion) energy Wc: symmetric films adsorbed from 5 mM, DI water. The class given is physicochemical. As for the experimental part:
The interaction between two surfaces can be measured with nano-Newton level force resolution and Angstrom level resolution in the separation distance between the surfaces. The details of the SFA techniques have been describe in a work by Israelachvili et al. In a typical SFA experiment (FIG. 2C), the distance and the force between the surfaces are measured simultaneously. To begin with, the instrument is calibrated at large separation distances. When the two surfaces are not interacting, i.e., they are separated by large distances, the change in the separation between them is equal to the distance through which the motor moves the lower surface towards or away from the upper surface (or the upper surface driven by the piezo-tube moves towards the lower surface). However, once the surfaces are close enough to start interacting with each other, the measured separation distance deviates from the expected separation calibrated when there is no force between the surfaces. This deviation is due to the deflection of the double cantilever spring and is directly proportional to the force acting normally between the two opposing surfaces. Thus the normal force can be measured using Hooke's law, F=kΔx, where k is the spring constant of the double-cantilever spring and Δx=Dactual−Dapplied is the deflection of the spring, determined by taking the difference between the applied change in position of one of the surfaces Dapplied and the actual change in distance measured between the surfaces Dactual. The actual distance, Dactual, between the surfaces can be measured by multiple beam interferometry (MBI) and will be discussed below.
The distance between the surfaces, shape of the interface and the refractive index of the media between the surfaces can be accurately determined by Multiple Beam Interferometry (MBI) technique. In this technique, white light is directed through two back-silvered mica surfaces (or uniform and same thickness). As a white light passes between the mica surfaces, it undergoes interference due to the optical trap set up by the back silver on each of these surfaces giving rise to discrete wavelengths of light (FIG. 2C). These wavelengths of light are resolved in a spectrometer creating interference fringes known as ‘fringes of equal chromatic order’ (FECO). Since mica is birefringent, the FECO appears as doublets and termed as β and γ. Alternate fringes are termed as odd and even fringes with odd fringes having nodes at the center and even fringes with anti-nodes in the center. The FECO is then recorded on a camera and analyzed to determine the distance between the surfaces using the following equations: […]
The adhesion/cohesion energy of the synthetic zwitterionic molecules was investigated in SFA (SurForce LLC, Santa Barbara, CA). Two molecularly smooth freshly cleaved back silvered mica surfaces glued on cylindrical silica discs of radius of curvature, R˜2 cm, were mounted in the SFA and 50 μL of a colloidal dispersion of the synthetic molecules in DI water were injected between the surfaces at different concentrations (C=0.5-5 mM) and the forces between the thin films of the molecules were measured by Multiple Beam Interferometry (MBI). The adhesion forces between Z-Cat-C10 molecules on various surfaces, e.g., silica and copper, were also measured by AFM (MFP-3D, Asylum research, Goleta, CA) in DI water and ambient conditions, respectively, at room temperature. AFM probes with a silicon dioxide particle (10, 5, and 1 μm, respectively) on a silicon nitride (SN) cantilever-0.6 N m^−1 were purchased from Novascan Technologies, Inc (Ames, IA). Cantilever spring constants were measured for each force run. Images of Z-Cat-C10 coating on silicon wafer and copper plates were visualized in an AFM. […]

Data set [5] can be described thus: Cyclic voltammetry of catechol oxidation. It is filed as physicochemical. To be noted: DI water, scan rate 1 mV s−1, Ag/AgCl reference. On the procedure:
(§1) Cyclic voltammetry was performed on a Versastat 3 potentiostat from Ametek Co. These analyses were carried out using a three-electrode cell: a Pt wire as the counter electrode, an Ag/AgCl reference electrode, and a Carbon paste electrode (CPE) served as the working electrode. CPE is the best choice for adhesive materials because of its ability to be completely polished before each experiment. Catechol auto-oxidation was avoided by performing all electrochemical experiments with degassed deionized water in a glove bag under argon. Scan rate 1 mV s-1 was used for all experiments. CV of 5 mM synthesized polymers and 5 mM methyl catechol, a simple catechol-containing compound, were compared. Oxidation of Catechol carrying molecules occurred at more positive potentials than methyl catechol, indicating the unique structure of the dispersions provide shielding effects that stabilized catechol groups (FIG. 3).
Cyclic voltammetry was performed on a Versastat 3 potentiostat from Ametek Co. (Berwyn, PA). These analyses were carried out using a three-electrode cell: a Pt wire as the counter electrode, an Ag/AgCl reference electrode, and a Carbon paste electrode (CPE) served as the working electrode. CPE is the best choice for adhesive materials because of its ability to be completely polished before each experiment.
as §1, with “s^−1” for “s-1”, “molecules” for “polymers”, “groups. Z-Cat-Ben with an oxidation peak at 840 mV is more resistant to oxidation than the other species” for “groups”, “42).” for “3).”

`C=CC(=O)OCc1ccc(O)cc1` [P2, 4-Hydroxybenzyl acrylate]: the “surface concentration of adsorbed layer” value in data set [1] is reported as 230 ng/cm^2. In data set [1] (of initial mass), the “mass loss during rinsing” value is 60%. For the same compound, in data set [2], the “lap shear strength σshear,max” value is “no increase in the lap shear strength”. Further, in data set [3], the “increase in adhesion vs plain mica (no primer)” value is reported as “no increase in adhesion”.
As for `CN(C)CCOP(=O)(O)OCCCc1ccc(O)c(O)c1` [Z-Cat-C4], in data set [4] (mica), the “cohesion (or adhesion) energy Wc” value came to 19.2±2.4 mJ m^−2.
Turning to `CN(C)CCOP(=O)(O)OCCCc1ccccc1` [Z-Ben-C8], in data set [4] (deposited at 0.5 mM in DI water), the “film (hard-wall) thickness” value stood at 2 nm. Further, the hard-wall thickness in data set [4] (films adsorbed from 5 mM, mica) is recorded as approximately 5 nm. For the same compound, in data set [4] (mica), the “cohesion (or adhesion) energy Wc” value was “without cohesive tendencies”.
`CN(C)CCOP(=O)(O)OCCCc1ccc(O)c(O)c1` [Z-Cat-C8] gave an interaction energy in data set [4] (0.5 mM concentration) of approximately 22 mJ m^−2. Moreover, the “cohesion (or adhesion) energy Wc” value in data set [4] (mica) is listed as 2.5±0.3 mJ m^−2.
For the compound `Cc1ccc(O)c(O)c1` [4-methylcatechol, reference compound], the figures for the E1/2 in data set [5] and in data set [5] (listed as methyl catechol) were approximately 0.12 V and 0.124 V, respectively.
Consider `C=C(C)C(=O)OCCCCCCCCCCOP(=O)(O)O` [MDP, 10-methacryloyloxydecyl dihydrogen phosphate, reference compound], for which, in data set [2], the “lap shear strength σshear,max” value was 3.1±0.2 MPa.
`C=CC(=O)OCc1ccccc1` [P1, Benzyl acrylate, reference compound]: the “surface concentration of adsorbed layer” value in data set [1] is reported as 0 ng/cm^2. The “lap shear strength σshear,max” value in data set [2] is “no increase in the lap shear strength”. In addition, the “increase in adhesion vs plain mica (no primer)” value in data set [3] is reported as “no increase in adhesion”.
Take `CN(C)CCOP(=O)(O)OCCCc1ccc(O)c(O)c1` [Z-Cat-C6]: in data set [4] (mica), the “cohesion (or adhesion) energy Wc” value stood at 9.6±1.1 mJ m^−2.
